Patent publication US20230303512A1, “MODULATORS OF MYB-MEDIATED TRANSCRIPTION AND USES THEREOF” (Massachusetts Institute of Technology, priority 2020, published 2023)
pIC50: −log10 of the molar value. “Also recorded” adds a separate entry of the source.

What was measured:
[1] = test system: c-Myb; assay: 5×MRE-luciferase reporter assay in HEK293T cells; type: cell-based; settings: Homo sapiens, HEK-293T; c-Myb plus 5×MRE firefly luciferase transfected, 18 hours, normalized to DMSO
Method: (§1) An assay using a 5×Myb-response element (MRE)-luciferase construct was used to evaluate the compounds' ability to bind MYB and/or disrupt the MYB-NFIB interaction. The 5×MRE reporter was conducted in both HEK293T cells and Jurkat cells, and for the HEK293T system a transient transfection of plasmid vectors expressing either MYB or MYB-NFIB, and a plasmid containing the 5×MRE promoter sequence cloned upstream of Firefly luciferase were used. For the Jurkat system, the reporter was driven by endogenous MYB, and the 5×MRE construct was transiently transfected. Cells were treated with two different high concentrations of each compound (10 and 20 µM) and the luciferase activity was measured 18 hours post-treatment. Individual wells were normalized for viability (cell count) using the Cyto-tox One assay (Promega).
HEK293T cells were plated at a density of 7500 cells/well in a 384-well plate. The following day, the cells were transfected with plasmids encoding 1)c-Myb under control of a CMV promoter, 2) 5×MRE reporter construct driving firefly luciferase expression in a 1:2 ratio. 4 hours following transfection, compound analogs were added using a Tecan transfer tool to the wells. The plate was incubated for 18 hours, and then firefly luciferase signal measured using promega Dual-Glo luciferase assay system according to the manufacturer's protocols. The signal was normalized to control wells which were treated with DMSO vehicle.

[2] = test system: Jurkat; assay: Cell Titer Glo viability assay, Jurkat; type: cell-based; settings: Homo sapiens, read-out: IC50 Cell Titer Glow Viability Jurkat
[3] = test system: endogenous MYB; assay: 5×MRE-luciferase reporter assay in Jurkat cells; type: cell-based; settings: Homo sapiens, 5×MRE firefly luciferase, 18 hours, normalized to DMSO
Method: as §1
Jurkat cells were reverse transfected at a density of 40,000 cells/well at the time of plating with a plasmid encoding 5×MRE reporter construct driving firefly luciferase expression. 4 hours following transfection, the compound analogs were added using a Tecan transfer tool to the wells. The plate was incubated for 18 hours, and then firefly luciferase signal was measured using promega Steady-glo luciferase assay system according to the manufacturer's protocols. The signal was normalized to control wells which were treated with DMSO vehicle.

[4] = test system: 800 cancer cell lines; assay: PRISM cell profiling in barcoded and pooled cancer cell lines; type: cell-based
Description: (§2) Efforts have also included assessment of impact on viable cell growth using traditional luminescent cell viability assays (e.g., CellTiter-Glo™ or GTG) and high-throughput profiling in barcoded and pooled cancer cell lines. Collaboration with the Broad Institute's PRISM cell profiling platform provided the ability to survey sensitivity to KI-TM-001 against 800 cancer cell lines representing a broad spectrum of lineages, including 300 suspension lines and 500 adherent lines.
(§3) Roughly 650 of the lines passed quality control analyses. […] The CTG assay is well established has been used to survey viability of cell lines used routinely in the lab, noting a separation between solid tumor lines and hematopoetic lineages (FIG. 3B).

[5] = test system: Molt4-5×MRE-FLuc cells; assay: Cell-Titer Glo viability assay, Molt4-5×MRE-FLuc cells; type: cell-based; settings: 4 hours; read-out: IC50 Cell Titer Glo Molt4-5xMRE-FLuc Viability
Method: Molt4-5×MRE-FLuc cells were plated at a density of 10000 cells/well in 25 uL of media in a 384-well plate. The following day, compound analogs were added using a Tecan transfer tool. The plates were incubated for 4 hours, and then the viability was measured using promega Cell-titer glo assay according to the manufacturer's protocols.

[6] = biological target: T1, MYB-TAF12 interaction (Homo sapiens, UniProt P10242); assay: In-cell BRET protein-protein interaction assay; type: cell-based; settings: FIG. 1B, read-out: IC50 for blocking the MYB-TAF12 interaction
T1 construct: BRET donor or acceptor fusion (which one is not specified); expressed in transfected cells
Method: (§4) In-cell bioluminescence resonance energy transfer (BRET) assays were developed to assess the influence of the compounds on MYB-p300 and MYB-TAF12 interactions (FIG. 1A). […] The ability of KI-TM-001 to modulate MYB protein and transcript levels in MOLT4 and Jurkat cells was also evaluated. […] Degradation appears to be proteasome-dependent as MYB can be rescued by treatment with the proteasome inhibitor MG132.

[7] = test system: MM1.S, a multiple myeloma line; assay: Cell Titer Glo assay, MM1.S; type: cell-based; settings: Homo sapiens, FIG. 3B
Description: FIG. 3B is a plot showing Cell Titer Glo assay results for KI-TM-001 in several hematopoietic lines versus prostate and ovarian cell lines.
as §2, §3

[8] = test system: MYB-NFIB fusion protein; assay: Initial binding studies, MYB-NFIB
Method: (§5) Next, analogues of KI-TM1-001 were prepared and evaluated. Compounds of Formula (I) may be prepared using the synthetic schemes and procedures described in detail below.

[9] = biological target: T2, MYB (Homo sapiens, UniProt P10242); assay: Initial binding studies, MYB
Method: as §5
Target sequence in this assay (P10242 whole entry, species assumed): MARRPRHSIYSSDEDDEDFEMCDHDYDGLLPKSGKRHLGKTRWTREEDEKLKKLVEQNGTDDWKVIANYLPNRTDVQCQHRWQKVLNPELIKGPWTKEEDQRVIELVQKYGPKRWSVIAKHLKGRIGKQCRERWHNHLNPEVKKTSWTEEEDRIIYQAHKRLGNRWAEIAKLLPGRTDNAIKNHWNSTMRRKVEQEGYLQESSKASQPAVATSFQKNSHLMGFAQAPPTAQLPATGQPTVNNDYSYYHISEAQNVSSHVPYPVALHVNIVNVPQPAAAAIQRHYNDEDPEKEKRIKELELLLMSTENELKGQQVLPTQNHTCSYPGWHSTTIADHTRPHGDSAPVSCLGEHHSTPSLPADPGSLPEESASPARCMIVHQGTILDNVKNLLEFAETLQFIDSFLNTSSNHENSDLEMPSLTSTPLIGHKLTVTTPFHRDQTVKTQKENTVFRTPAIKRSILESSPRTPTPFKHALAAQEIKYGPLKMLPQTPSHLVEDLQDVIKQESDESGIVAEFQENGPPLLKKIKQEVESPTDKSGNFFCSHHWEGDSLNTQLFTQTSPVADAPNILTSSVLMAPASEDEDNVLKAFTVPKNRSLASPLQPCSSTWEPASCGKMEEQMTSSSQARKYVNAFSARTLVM

[10] = biological target: T2, MYB; assay: MYB protein levels in MOLT4 and Jurkat cells; type: cell-based; parameters: endogenous in cells; host or cells: MOLT4 and Jurkat cells
Method: FIG. 2 is a plot showing a dose curve of KI-TM-001, and its effect on MYB protein levels in Molt4 at the 6 hour timepoint.
as §4
Target sequence in this assay (P10242 whole entry): as the sequence (P10242 whole entry, species assumed) above

[11] = test system: APL line NB4; assay: PRISM cell profiling, NB4; type: cell-based; settings: PRISM data set
Description: as §2, §3

[12] = test system: endogenous Myb protein; assay: Molt4-5×MRE-FLuc reporter assay; type: cell-based; settings: 4 hours, One-Glo, normalized to DMSO; read-out: IC50 Molt4-5xMRE-FLuc Reporter
Method: Molt4 cells were stably transduced with a lentiviral construct encoding a 5×MRE Myb-responsive promoter driving firefly luciferase expression. The reporter output is controlled by the levels/activity of endogenous Myb protein in the Molt4 cell line.
Molt4-5×MRE-FLuc cells were plated at a density of 10000 cells/well in 25 uL of media in a 384-well plate. Compound analogs were added using a Tecan transfer tool to the wells. The plate was incubated for 4 hours, and then firefly luciferase signal measured using promega One-Glo luciferase assay system according to the manufacturer's protocols. The signal was normalized to control wells which were treated with DMSO vehicle.

T1 sequence (P10242 whole entry, the tested form may be a part): as the sequence (P10242 whole entry, species assumed) above

| SMILES | pIC50 [1] | pIC50 [2] | pIC50 [3] | further results |
| --- | --- | --- | --- | --- |
| Cc1cc(N2CCC(NCc3cccc(C(C)(C)C)c3)CC2)nc(N)n1 [drawing 245] | < 4.52 |  |  |  |
| Cc1cc(N2CCC(NC(=O)c3cccc(N4CCCC4)c3)CC2)nc(N)n1 [drawing 234] | < 4.40 | < 4.52 | 4.95 |  |
| Cc1cc(N2CCC(NCc3cccc(-n4cccc4)c3)CC2)nc(N)n1 [drawing 236] | 4.83 | 4.67 | 4.92 |  |
| COc1cccc(CNC2CCN(c3cc(C)nc(N)n3)CC2)c1 [drawing 238] | < 4.40 | < 4.52 | 4.52 |  |
| Cc1cc(N2CCC(NCc3cccc(N4CCCC4)c3)CC2)nc(N)n1 [KI-TM1-001, 4-Methyl-6-(4-((3-(pyrrolidin-1-yl)benzyl)amino)piperidin-1-yl)pyrimidin-2-amine] |  |  |  | pIC50 ([4]; PRISM data set, read-out: IC50 in a number of hematopoietic lines): > 6.00; lineages most impacted / lineage enrichment (median AUC versus lineage) ([4]; PRISM, roughly 650 lines passed quality control, FIG. 3A, listed as KI-TM-001): rhabdomysosarcoma, multiple myeloma, lymphoma, and leukemia; also recorded: mild enrichment for leukemia, lymphoma, multiple myeloma and rhabdomyosarcoma (RMS) cell lines; pIC50 [5]: < 4.40; pIC50 [6]: 5.15; GI50 [7]: 2.01 µM; binding to MYB-NFIB fusion protein [8]: binds; binding to MYB [9]: binds; time to impact on MYB protein levels ([10]; MOLT4 and Jurkat cells): ≤ 2 h; mechanism of MYB degradation ([10]; MYB rescued by the proteasome inhibitor MG132): proteasome-dependent; effect on MYB protein levels ([10]; different cell lines (MOLT4, Jurkat), FIG. 1C-E, FIG. 2, listed as KI-TM-001): dose-dependent reduction of MYB protein; also recorded: dose-dependent manner; pIC50 [11]: 6.68; pIC50 [12]: 4.87 |
| Cc1cc(N2CCC(NCc3cccc(N4CCCC4)c3)CC2)nc(N)n1 [drawing 228] | 4.80 | 5.49 | 5.46 |  |
| Cc1cc(N2CCC[C@@H](NCc3cccc(N4CCCC4)c3)C2)nc(N)n1 [drawing 241] |  | 5.36 | 5.65 |  |
| Cc1cc(N2CCC(NCc3cccc(N4CCCCC4)c3)CC2)nc(N)n1 [drawing 235] | 4.60 | 4.95 | 5.38 |  |
| Cc1cc(N2CCC(NCc3cccc(N(C)C)c3)CC2)nc(N)n1 [drawing 237] | < 4.40 | < 4.52 | < 4.40 |  |
| Cc1cc(N2CCC(NCc3cccc(-n4ccnc4)c3)CC2)nc(N)n1 [drawing 240] | < 4.40 | < 4.52 | 4.59 |  |
| CCN(CC)c1ccc(CNC2CCN(c3cc(C)nc(N)n3)CC2)cc1 [drawing 246] | < 4.52 |  |  |  |
| Cc1cc(N2CCC(NCc3cccc(-n4cccn4)c3)CC2)nc(N)n1 | < 4.40 | < 4.52 | 4.51 |  |
| CC(=O)N(Cc1cccc(N2CCCC2)c1)C1CCN(c2cc(C)nc(N)n2)CC1 [drawing 231] |  | < 4.52 | 4.96 |  |
| Cc1cc(N2CCC(NCc3ccccc3N3CCCC3)CC2)nc(N)n1 [drawing 232] | < 4.40 | < 4.52 | 5.51 |  |
| Cc1cc(N2CCC[C@H](NCc3cccc(N4CCCC4)c3)C2)nc(N)n1 [drawing 242] |  | 4.71 | 5.09 |  |
| Cc1cc(N2CCC(NCc3ccc(N4CCCC4)cc3)CC2)nc(N)n1 [drawing 233] | < 4.40 | < 4.52 | 4.76 |  |
| Cc1cc(N2CCC(N(Cc3cccc(N4CCCC4)c3)C(=O)NC(C)C)CC2)nc(N)n1 [drawing 230] |  | < 4.52 | 4.58 |  |
| Cc1cc(N2CCC(NCc3cccc(N4CCCC4)c3)CC2)ncn1 [drawing 244] | < 4.52 |  |  |  |
| Cc1cc(NCCCNCc2cccc(N3CCCC3)c2)nc(N)n1 [drawing 243] |  | < 4.52 | 5.07 |  |
| Cc1cc(N2CCC(NCc3ccccc3)CC2)nc(N)n1 | < 4.40 | < 4.52 | 4.59 |  |
